Test results as given in ChEMBL document CHEMBL4673373, “Discovery and optimization of substituted oxalamides as novel heme-displacing IDO1 inhibitors” (Bioorg Med Chem Lett, 2021).

Tests used:
[1] = molecular target: T1, Indoleamine 2,3-dioxygenase 1 (Homo sapiens, UniProt P14902); experiment: Inhibition of IDO1 (unknown origin) by enzymatic assay
Target sequence in this assay (P14902 whole entry): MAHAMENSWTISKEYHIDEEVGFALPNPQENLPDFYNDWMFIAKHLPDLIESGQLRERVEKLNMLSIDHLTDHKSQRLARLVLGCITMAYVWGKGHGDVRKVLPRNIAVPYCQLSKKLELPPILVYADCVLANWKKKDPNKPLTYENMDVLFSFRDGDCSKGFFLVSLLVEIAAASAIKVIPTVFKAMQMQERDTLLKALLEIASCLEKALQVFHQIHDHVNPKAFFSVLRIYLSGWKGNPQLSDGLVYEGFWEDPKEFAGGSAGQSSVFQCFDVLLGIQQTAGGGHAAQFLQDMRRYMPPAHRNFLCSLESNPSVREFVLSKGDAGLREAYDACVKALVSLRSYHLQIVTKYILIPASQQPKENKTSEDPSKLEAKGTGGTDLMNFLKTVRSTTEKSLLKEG

[2] = molecular target: T1, Indoleamine 2,3-dioxygenase 1; experiment: Inhibition of IDO1 in human SKOV3 cells; type: cell-based, SK-OV-3
Target sequence in this assay (P14902 whole entry): as above

[3] = molecular target: T2, hERG (KCNH2) (Homo sapiens, UniProt Q12809); experiment: Inhibition of human ERG at 10 uM relative to control
[4] = Metabolic stability in mouse liver microsomes assessed as intrinsic clearance; type: ADME, Microsome; conditions: read-out: CLH
[5] = Metabolic stability in human liver microsomes assessed as intrinsic clearance; type: ADME, Microsome; conditions: read-out: CLH
[6] = molecular target: Tryptophan 2,3-dioxygenase (Homo sapiens, UniProt P48775); experiment: Inhibition of TDO in HEK cells; type: cell-based
[7] = AUC(0 to 8 hrs) in mouse at 10 mg/kg, po; type: ADME, organism-based; design: route oral, time 8 hrs, dose 10 mg/kg; conditions: in vivo
[8] = molecular target: T1, Indoleamine 2,3-dioxygenase 1; experiment: Binding affinity to IDO1 (unknown origin) assessed as change in melting temperature at 5 uM by thermal shift assay
Target sequence in this assay (P14902 whole entry, looked up): as the sequence (P14902 whole entry) above

[9] = Half life in mouse at 10 mg/kg, po; type: ADME, organism-based; conditions: in vivo
[10] = Cmax in mouse at 10 mg/kg, po; type: ADME, organism-based; design: route oral, dose 10 mg/kg; conditions: in vivo
[11] = molecular target: T2, hERG (KCNH2); experiment: Inhibition of human ERG assessed as reduction in channel tail current at 10 uM by patch clamp assay relative to control
[12] = molecular target: T3, Cytochrome P450 2C8 (Homo sapiens, UniProt P10632); experiment: Inhibition of CYP2C8 (unknown origin); type: ADME
T3 sequence (P10632 whole entry): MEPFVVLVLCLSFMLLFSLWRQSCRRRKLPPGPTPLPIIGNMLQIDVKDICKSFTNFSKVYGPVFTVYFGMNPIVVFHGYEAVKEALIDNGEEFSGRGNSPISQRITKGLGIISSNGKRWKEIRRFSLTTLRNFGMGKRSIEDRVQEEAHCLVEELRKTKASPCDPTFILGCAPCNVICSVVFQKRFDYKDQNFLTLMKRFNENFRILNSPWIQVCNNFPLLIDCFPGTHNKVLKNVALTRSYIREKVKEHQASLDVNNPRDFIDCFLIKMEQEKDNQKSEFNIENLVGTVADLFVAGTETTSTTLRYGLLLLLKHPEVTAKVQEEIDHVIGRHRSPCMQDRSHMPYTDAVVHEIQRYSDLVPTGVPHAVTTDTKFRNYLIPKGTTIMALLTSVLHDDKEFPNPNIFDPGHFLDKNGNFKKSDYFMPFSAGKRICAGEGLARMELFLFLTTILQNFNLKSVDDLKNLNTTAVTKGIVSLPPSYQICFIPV

[13] = Plasma protein binding in mouse; type: ADME, cell-free; conditions: read-out: PPB (converted)
[14] = Plasma protein binding in human; type: ADME, cell-free; conditions: read-out: PPB (converted)
[15] = molecular target: T1, Indoleamine 2,3-dioxygenase 1; experiment: Inhibition of IDO1 in human whole blood; type: tissue-based
Target sequence in this assay (P14902 whole entry): as the sequence (P14902 whole entry) above

[16] = molecular target: Cytochrome P450 2C9 (Homo sapiens, UniProt P11712); experiment: Inhibition of CYP2C9 (unknown origin); type: ADME
[17] = molecular target: Cytochrome P450 2D6 (Homo sapiens, UniProt P10635); experiment: Inhibition of CYP2D6 (unknown origin); type: ADME
Cytochrome P450 2D6, sequence (P10635 whole entry): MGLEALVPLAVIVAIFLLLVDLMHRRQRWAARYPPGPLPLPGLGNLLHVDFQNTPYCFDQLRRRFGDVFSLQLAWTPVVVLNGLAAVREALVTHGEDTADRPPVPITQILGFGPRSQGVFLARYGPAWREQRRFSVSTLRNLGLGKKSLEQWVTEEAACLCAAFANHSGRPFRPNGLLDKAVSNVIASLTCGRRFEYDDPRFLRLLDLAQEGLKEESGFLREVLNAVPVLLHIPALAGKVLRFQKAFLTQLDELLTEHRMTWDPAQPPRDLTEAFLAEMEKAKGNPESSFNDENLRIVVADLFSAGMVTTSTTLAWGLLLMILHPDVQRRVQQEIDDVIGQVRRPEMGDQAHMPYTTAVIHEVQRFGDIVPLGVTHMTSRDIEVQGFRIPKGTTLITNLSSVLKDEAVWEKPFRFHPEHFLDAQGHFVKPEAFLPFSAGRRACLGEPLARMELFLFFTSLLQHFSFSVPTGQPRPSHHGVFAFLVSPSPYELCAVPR

Tryptophan 2,3-dioxygenase, sequence (P48775 whole entry): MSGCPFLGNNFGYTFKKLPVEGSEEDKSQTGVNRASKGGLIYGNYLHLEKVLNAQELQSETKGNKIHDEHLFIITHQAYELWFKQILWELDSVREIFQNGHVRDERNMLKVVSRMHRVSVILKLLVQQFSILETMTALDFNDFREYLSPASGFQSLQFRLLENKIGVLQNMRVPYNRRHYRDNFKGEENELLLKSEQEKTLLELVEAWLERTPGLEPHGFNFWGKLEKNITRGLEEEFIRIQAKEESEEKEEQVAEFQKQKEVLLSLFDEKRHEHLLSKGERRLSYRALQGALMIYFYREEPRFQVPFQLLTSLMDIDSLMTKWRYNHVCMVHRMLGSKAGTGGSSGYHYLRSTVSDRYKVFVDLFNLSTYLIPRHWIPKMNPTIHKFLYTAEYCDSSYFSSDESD
T2 sequence (Q12809 whole entry): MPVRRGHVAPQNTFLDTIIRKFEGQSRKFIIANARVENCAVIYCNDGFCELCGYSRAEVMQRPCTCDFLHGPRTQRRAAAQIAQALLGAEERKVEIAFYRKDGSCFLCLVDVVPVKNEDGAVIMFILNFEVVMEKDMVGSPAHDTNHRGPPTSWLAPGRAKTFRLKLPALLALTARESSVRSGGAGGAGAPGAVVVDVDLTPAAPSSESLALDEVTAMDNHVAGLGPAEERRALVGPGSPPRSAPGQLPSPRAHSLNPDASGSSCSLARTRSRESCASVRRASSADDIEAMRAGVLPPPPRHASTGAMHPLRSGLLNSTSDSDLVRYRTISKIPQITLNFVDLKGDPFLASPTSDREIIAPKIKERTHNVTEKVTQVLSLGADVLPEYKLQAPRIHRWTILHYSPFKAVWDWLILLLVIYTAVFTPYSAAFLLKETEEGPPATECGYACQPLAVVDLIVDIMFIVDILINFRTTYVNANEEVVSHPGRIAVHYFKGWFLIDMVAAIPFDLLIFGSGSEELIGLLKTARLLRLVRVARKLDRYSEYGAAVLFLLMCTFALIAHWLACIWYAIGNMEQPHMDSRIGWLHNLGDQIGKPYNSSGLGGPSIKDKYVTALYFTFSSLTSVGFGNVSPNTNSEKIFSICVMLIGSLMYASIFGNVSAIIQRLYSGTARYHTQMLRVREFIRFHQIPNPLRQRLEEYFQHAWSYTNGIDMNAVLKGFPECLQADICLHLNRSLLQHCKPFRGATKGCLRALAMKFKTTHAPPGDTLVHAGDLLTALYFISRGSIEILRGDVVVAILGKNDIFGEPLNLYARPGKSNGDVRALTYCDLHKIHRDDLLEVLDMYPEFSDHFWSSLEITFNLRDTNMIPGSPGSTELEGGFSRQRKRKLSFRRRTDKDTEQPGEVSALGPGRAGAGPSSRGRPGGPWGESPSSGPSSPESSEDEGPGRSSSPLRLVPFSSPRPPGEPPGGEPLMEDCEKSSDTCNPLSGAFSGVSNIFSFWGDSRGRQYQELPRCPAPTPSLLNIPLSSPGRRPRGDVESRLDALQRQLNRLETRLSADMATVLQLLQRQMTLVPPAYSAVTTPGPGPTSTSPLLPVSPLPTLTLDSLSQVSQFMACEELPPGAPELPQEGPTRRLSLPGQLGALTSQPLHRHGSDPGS
Cytochrome P450 2C9, sequence (P11712 whole entry): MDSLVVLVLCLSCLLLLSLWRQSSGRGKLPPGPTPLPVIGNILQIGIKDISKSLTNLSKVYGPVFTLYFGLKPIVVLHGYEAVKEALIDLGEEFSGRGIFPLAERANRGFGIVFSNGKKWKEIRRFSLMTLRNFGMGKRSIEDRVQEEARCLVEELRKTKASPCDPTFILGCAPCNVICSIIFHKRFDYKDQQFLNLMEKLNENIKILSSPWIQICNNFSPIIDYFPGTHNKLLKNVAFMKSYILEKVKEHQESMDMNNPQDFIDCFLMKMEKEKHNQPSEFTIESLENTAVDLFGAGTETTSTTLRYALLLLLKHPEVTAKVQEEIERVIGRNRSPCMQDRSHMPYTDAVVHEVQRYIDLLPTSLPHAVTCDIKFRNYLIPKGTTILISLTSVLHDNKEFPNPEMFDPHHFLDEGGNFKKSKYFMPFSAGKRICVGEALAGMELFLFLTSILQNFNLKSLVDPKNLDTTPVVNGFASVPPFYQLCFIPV

Row | SMILES | IC50 [2] | inhibition at 10 µM [3] | microsomal CLint [4] | microsomal CLint [5] | IC50 [6] | also measured
1 | NS(=O)(=O)NCCCNC(=O)/C(=N/O)Nc1ccc(F)c(Cl)c1 | 1.2 µM | – | – | – | – | IC50 [1]: 10.3 µM
2 | N#Cc1ccc(NC(=O)C(=O)N2CCC(c3ccnc4ccc(F)cc34)CC2)cc1 | 0.036 µM | 61% | 28 µL/min/mg | 11 µL/min/mg | 5.5 µM | –
3 | O=C(Nc1ccc(Cl)cc1)C(=O)N1CCCC2(CC1)COc1cc(C(F)(F)F)ccc12 (centres undefined) | 0.7 µM | – | – | – | 37 µM | –
4 | O=C(Nc1ccc(Cl)cc1F)C(=O)N1CCC(c2ccnc3ccc(F)cc23)CC1 | 0.007 µM | – | 108 µL/min/mg | 10 µL/min/mg | 6.7 µM | –
5 | NC(=O)/C(=N/O)Nc1ccc(F)c(Cl)c1 | 24 µM | – | – | – | – | IC50 [1]: 78 µM
6 | O=C(Nc1ccc(Cl)cc1)C(=O)N1CCC(c2ccnc3ccc(F)cc23)C(F)(F)C1 (racemic) | 0.009 µM | 15% | 52 µL/min/mg | 11.6 µL/min/mg | 6.3 µM | –
7 | N#Cc1ccc2nccc(C3CCN(C(=O)C(=O)Nc4ccc(Cl)cc4)CC3)c2c1 | 0.118 µM | – | – | – | 6.1 µM | –
8 | O=C(Nc1ccc(Cl)cn1)C(=O)N1CCC2(CC1)COc1cc(C(F)(F)F)ccc12 | 0.073 µM | – | 63 µL/min/mg | 6 µL/min/mg | 6.4 µM | –
9 | C[C@@H](C(=O)Nc1ccc(Cl)cc1)[C@H]1CC[C@@H](c2ccnc3ccc(F)cc32)CC1 | – | – | 386 µL/min/mg | 21.3 µL/min/mg | – | AUC(0-t) at 8 h [7]: 9.3 µM·h
10 | O=C(Nc1ccc(Cl)cc1F)C(=O)N1CCC=C(c2ccnc3ccc(F)cc23)CC1 | 0.005 µM | – | 254 µL/min/mg | 98 µL/min/mg | 16 µM | –
11 | O=C(Nc1ccc(C(F)(F)F)cc1)C(=O)N1CCC(c2ccnc3ccc(F)cc23)CC1 | 0.09 µM | 77% | 16 µL/min/mg | 5.5 µL/min/mg | 9.5 µM | –
12 | CC1(C)CN(C(=O)C(=O)Nc2ccc(Cl)cc2)CCC1c1ccnc2ccc(F)cc12 (racemic) | 0.023 µM | 71% | 72.9 µL/min/mg | 28.8 µL/min/mg | 4.5 µM | –
13 | O=C(Nc1ccc(Cl)cc1)C(=O)N1CCC2(CC1)COc1cc(C(F)F)ccc12 | 0.03 µM | 71% | 167 µL/min/mg | 20 µL/min/mg | 30 µM | –
14 | O=C(Nc1ccc(Cl)cc1)C(=O)N1CCC(c2ccnc3cc(F)ccc23)CC1 | 0.019 µM | 85% | 55 µL/min/mg | 26 µL/min/mg | – | –
15 | O=C(/C(=N/O)Nc1ccc(F)c(Cl)c1)N1CCC(c2ccccc2)CC1 | 14 µM | – | – | – | – | IC50 [1]: > 60 µM
16 | O=C(Nc1ccc(Cl)cn1)C(=O)N1CCC2(CC1)COc1ccccc12 | 0.49 µM | – | – | – | – | –

Row | SMILES | IC50 [2] | inhibition at 10 µM [3] | microsomal CLint [4] | microsomal CLint [5] | IC50 [6] | also measured
17 | O=C(Nc1ccc(Cl)cc1)C(=O)N1CCC(c2ccnc3ccc(Cl)cc23)CC1 | 0.019 µM | – | 72 µL/min/mg | 11 µL/min/mg | 2.5 µM | –
18 | O=C(Nc1ccc(C(F)F)cc1)C(=O)N1CCC(c2ccnc3ccc(F)cc23)CC1 | 0.021 µM | – | 76 µL/min/mg | 17 µL/min/mg | 5.8 µM | –
19 | O=C(Nc1ccc(Cl)cc1)C(=O)N1CC[C@@H](c2ccnc3ccc(F)cc23)[C@@H](O)C1 (stereo in doubt) | 3 µM | – | – | – | 37 µM | –
20 | O=C(Nc1ccc(Cl)cc1)C(=O)N1CCC(c2ccccc2)CC1 | 0.09 µM | – | – | – | – | IC50 [1]: > 60 µM; ΔTm [8]: 12 °C
21 | O=C(Nc1ccc(Cl)cc1)C(=O)N1CC[C@H](c2ccnc3ccc(F)cc23)[C@H](O)C1 (stereo in doubt) | 0.11 µM | – | – | – | 17.2 µM | –
22 | O=C(Nc1ccc(Cl)cc1)C(=O)N1CC[C@H](c2ccnc3ccc(F)cc23)[C@@H](O)C1 (stereo in doubt) | 0.0061 µM | 18% | 17 µL/min/mg | 4 µL/min/mg | 14 µM | half-life [9]: 1.4 h; AUC(0-t) at 8 h [7]: 27.1 µM·h; Cmax [10]: 10 µM; inhibition at 10 µM [11]: 34%; IC50 [12]: 9.5 µM; fraction unbound [13]: 0.02; fraction unbound [14]: 0.011; IC50 [15]: 0.33 µM; ΔTm [8]: 13 °C
23 | CS(=O)(=O)NCCCNC(=O)/C(=N/O)Nc1ccc(F)c(Br)c1 | 0.34 µM | – | – | – | – | IC50 [1]: 5 µM
24 | O=C(Nc1ccc(Cl)cc1)C(=O)N1CCC2(CC1)COc1cc(C(F)(F)F)ccc12 | – | 86% | 14 µL/min/mg | < 1 µL/min/mg | 21 µM | –
25 | O=C(Nc1ccc(Cl)cn1)C(=O)N1CCC(c2ccnc3ccc(F)cc23)CC1 | 0.07 µM | – | 112 µL/min/mg | 23 µL/min/mg | 5.9 µM | –
26 | O=C(Nc1ccc(Cl)cn1)C(=O)N1CCC(c2ccnc(C(F)(F)F)c2Cl)CC1 | 0.301 µM | – | 36 µL/min/mg | 3.5 µL/min/mg | 22 µM | –
27 | O=C(Nc1ccc(F)c(Cl)c1)C(=O)N1CCC(c2ccccc2)CC1 | 1.8 µM | – | – | – | – | IC50 [1]: > 60 µM; ΔTm [8]: 1 °C
28 | O=C(Nc1ccc(Cl)cn1)C(=O)N1CCC(c2cccc(Cl)c2Cl)CC1 | 0.245 µM | – | 77 µL/min/mg | 40 µL/min/mg | – | –
29 | O=C(Nc1ccc(Cl)cc1F)C(=O)N1CCCC(c2ccnc3ccc(F)cc23)CC1 (racemic) | 0.008 µM | 66% | 202 µL/min/mg | 108 µL/min/mg | 5.9 µM | –
30 | O=C(Nc1ccc(Cl)cc1)C(=O)N1CCC(c2ccnc3ccc(F)cc23)CC1 | – | 64% | 97 µL/min/mg | 9 µL/min/mg | 6.9 µM | half-life [9]: 1.8 h; AUC(0-t) at 8 h [7]: 19.3 µM·h; Cmax [10]: 5.1 µM; inhibition at 10 µM [11]: 70%; IC50 [16]: 6.1 µM; IC50 [12]: 4.7 µM; IC50 [17]: > 10 µM; fraction unbound [13]: 0.011; fraction unbound [14]: 0.003; ΔTm [8]: 14 °C
31 | O=C(Nc1ccc(Cl)cc1)C(=O)N1CC[C@@H](c2ccnc3ccc(F)cc23)[C@H](O)C1 (stereo in doubt) | 0.05 µM | 10% | 18 µL/min/mg | 5 µL/min/mg | 15.3 µM | –
32 | O=C(Nc1ccc(Cl)cn1)C(=O)N1CCC(c2ccnc3ccnn23)CC1 | 0.433 µM | – | – | – | – | –
